In patent publication US12077503B2, “Substituted cyclic amides and their use as herbicides” (FMC CORPORATION, priority 2015, dated 2024):

What was measured:
Type in all cases: in vivo
[1] = system: crabgrass, large (Digitaria sanguinalis); assay: Test A postemergence
Method in brief: (§1)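 Seeded soil received test chemicals as a preemergence directed spray, and seedlings at one to two leaves, 2–10 cm tall, received them postemergence, in a non-phytotoxic, surfactant-containing solvent mixture. Pots were held in a greenhouse for approximately 10 d, then rated for injury from 0, no effect, to 100, complete control.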

[2] = system: pigweed (Amaranthus retroflexus); assay: Test A postemergence
Method in brief: as §1

[3] = system: barnyardgrass (Echinochloa crus-galli); assay: Test A postemergence
Method in brief: as §1

[4] = system: giant foxtail (Setaria faberii); assay: Test A postemergence
Method in brief: as §1

[5] = system: corn (Zea mays); assay: Test A postemergence
Method in brief: as §1

[6] = system: wheat (Triticum aestivum); assay: Test A postemergence
Method in brief: as §1

[7] = system: morningglory (Ipomoea spp.); assay: Test A postemergence
Method in brief: as §1

[8] = system: velvetleaf (Abutilon theophrasti); assay: Test A postemergence
Method in brief: as §1

[9] = system: crabgrass, large (Digitaria sanguinalis); assay: Test A preemergence; details: for Plant response rating, Crabgrass, Large: preemergence
Method in brief: as §1

[10] = system: pigweed (Amaranthus retroflexus); assay: Test A preemergence; details: for Plant response rating, Pigweed: preemergence
[11] = system: barnyardgrass (Echinochloa crus-galli); assay: Test A preemergence; details: for Plant response rating, Barnyardgrass: preemergence
Method in brief: as §1

[12] = system: giant foxtail (Setaria faberii); assay: Test A preemergence; details: for Plant response rating, Foxtail, Giant: preemergence
Method in brief: as §1

[13] = system: corn (Zea mays); assay: Test A preemergence; details: for Plant response rating, Corn: preemergence
Method in brief: as §1

[14] = system: wheat (Triticum aestivum); assay: Test A preemergence; details: for Plant response rating, Wheat: preemergence
Method in brief: as §1

[15] = system: morningglory (Ipomoea spp.); assay: Test A preemergence; details: for Plant response rating, Morningglory: preemergence
Method in brief: as §1

[16] = system: velvetleaf (Abutilon theophrasti); assay: Test A preemergence; details: for Plant response rating, Velvetleaf: preemergence
Method in brief: as §1

[17] = system: ducksalad (Heteranthera limosa); assay: Test B flooded paddy test; details: Flood, 250 g ai/ha; 0 to 100 scale where 0 is no effect and 100 is complete control; 13 to 15 d
Method in brief: (§2)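 Plants at 2-leaf stage flooded to 3 cm above soil, with compounds applied directly to paddy water and that depth maintained. Plants kept in greenhouse 13–15 d. Visual rating versus controls on a 0 (no effect) to 100 (complete control) scale.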

[18] = system: sedge, umbrella (small-flower umbrella sedge, Cyperus difformis); assay: Test B flooded paddy test; details: Flood, 250 g ai/ha; for Sedge, Umbrella plant response rating: scale of 0 to 100 where 0 is no effect and 100 is complete control
Method in brief: as §2

[19] = system: barnyardgrass (Echinochloa crus-galli); assay: Test B flooded paddy test; details: Flood, 250 g ai/ha; 0 to 100 scale where 0 is no effect and 100 is complete control; 13 to 15 d
Method in brief: as §2

[20] = system: rice (Oryra sativa); assay: Test B flooded paddy test; details: Flood, 250 g ai/ha; 0 to 100 scale where 0 is no effect and 100 is complete control; 13 to 15 d
Method in brief: as §2

[21] = 125 g ai/ha, postemergence, visual injury after approximately 10 d, 0 to 100 scale (0 no effect, 100 complete control)
[22] = 500 g ai/ha, postemergence, visual injury, 0 to 100 scale (0 no effect, 100 complete control), approx. 10 d
[23] = 125 g ai/ha, visual rating after approx. 10 d, 0 to 100 scale where 0 is no effect and 100 is complete control
[24] = 500 g ai/ha, 0 to 100 scale, 0 = no effect, 100 = complete control
[25] = 500 g ai/ha, postemergence, 0 to 100 scale, 0 no effect, 100 complete control
[26] = Postemergence, 125 g ai/ha, visual injury, 0 to 100 scale (0 no effect, 100 complete control), approx. 10 d
[27] = 125 g ai/ha, 0 to 100 scale (0 no effect, 100 complete control)
[28] = Preemergence, 500 g ai/ha, 0 is no effect, 100 is complete control

O=C1NCC(c2cccc(O)c2)C1C(=O)Nc1ccccc1F (racemic) [Compound 714]
30: Plant response rating, Crabgrass, Large [9, 24]
0: Plant response rating, Crabgrass, Large [1, 21] | Plant response rating, Crabgrass, Large [1, 22] | Plant response rating, Pigweed [2, 21] | Plant response rating, Pigweed [2, 22] | Plant response rating, Barnyardgrass [3, 21] | Plant response rating, Barnyardgrass [3, 22] | Plant response rating, Foxtail, Giant [4, 21] | Plant response rating, Foxtail, Giant [4, 22] | Plant response rating, Corn [5, 21] | Plant response rating, Corn [5, 22] | Plant response rating, Wheat [6, 21] | Plant response rating, Wheat [6, 22] | Plant response rating, Morningglory [7, 21] | Plant response rating, Morningglory [7, 22] | Plant response rating, Velvetleaf [8, 21] | Plant response rating, Velvetleaf [8, 22] | Plant response rating, Pigweed [10, 23] | Plant response rating, Pigweed [10, 24] | Plant response rating, Barnyardgrass [11, 23] | Plant response rating, Barnyardgrass [11, 24] | Plant response rating, Foxtail, Giant [12, 23] | Plant response rating, Corn [13, 23] | Plant response rating, Corn [13, 24] | Plant response rating, Wheat [14, 23] | Plant response rating, Wheat [14, 24] | Plant response rating, Morningglory [15, 23] | Plant response rating, Morningglory [15, 24] | Plant response rating, Velvetleaf [16, 23] | Plant response rating, Velvetleaf [16, 24] | Plant response rating, Ducksalad [17] | Sedge, Umbrella plant response rating [18] | Plant response rating, Barnyardgrass [19] | Plant response rating, Rice [20]
20: Plant response rating, Crabgrass, Large [9, 23] | Plant response rating, Foxtail, Giant [12, 24]

O=C1NCC(c2cccc(O)c2)C1C(=O)Nc1cccc(F)c1F (racemic) [Compound 715]
0: Plant response rating, Crabgrass, Large [1, 21] | Plant response rating, Crabgrass, Large [1, 22] | Plant response rating, Pigweed [2, 21] | Plant response rating, Pigweed [2, 22] | Plant response rating, Barnyardgrass [3, 21] | Plant response rating, Barnyardgrass [3, 22] | Plant response rating, Foxtail, Giant [4, 21] | Plant response rating, Foxtail, Giant [4, 22] | Plant response rating, Corn [5, 21] | Plant response rating, Corn [5, 22] | Plant response rating, Wheat [6, 21] | Plant response rating, Wheat [6, 22] | Plant response rating, Morningglory [7, 21] | Plant response rating, Morningglory [7, 22] | Plant response rating, Velvetleaf [8, 21] | Plant response rating, Velvetleaf [8, 22] | Plant response rating, Crabgrass, Large [9, 23] | Plant response rating, Crabgrass, Large [9, 24] | Plant response rating, Pigweed [10, 23] | Plant response rating, Pigweed [10, 24] | Plant response rating, Barnyardgrass [11, 23] | Plant response rating, Barnyardgrass [11, 24] | Plant response rating, Foxtail, Giant [12, 23] | Plant response rating, Foxtail, Giant [12, 24] | Plant response rating, Corn [13, 23] | Plant response rating, Corn [13, 24] | Plant response rating, Wheat [14, 23] | Plant response rating, Wheat [14, 24] | Plant response rating, Morningglory [15, 23] | Plant response rating, Morningglory [15, 24] | Plant response rating, Velvetleaf [16, 23] | Plant response rating, Velvetleaf [16, 24] | Plant response rating, Ducksalad [17] | Sedge, Umbrella plant response rating [18] | Plant response rating, Barnyardgrass [19] | Plant response rating, Rice [20]

CN(C)c1cccc(C2CNC(=O)C2C(=O)Nc2ccccc2F)c1 (stereo not drawn) [Compound 360]
0: Plant response rating, Crabgrass, Large [1, 25] | Plant response rating, Crabgrass, Large [1, 26] | Plant response rating, Pigweed [2, 25] | Plant response rating, Pigweed [2, 26] | Plant response rating, Barnyardgrass [3, 25] | Plant response rating, Barnyardgrass [3, 26] | Plant response rating, Foxtail, Giant [4, 25] | Plant response rating, Foxtail, Giant [4, 26] | Plant response rating, Corn [5, 25] | Plant response rating, Corn [5, 26] | Plant response rating, Wheat [6, 25] | Plant response rating, Wheat [6, 26] | Plant response rating, Morningglory [7, 25] | Plant response rating, Morningglory [7, 26] | Plant response rating, Velvetleaf [8, 25] | Plant response rating, Velvetleaf [8, 26] | Plant response rating, Crabgrass, Large [9, 27] | Crabgrass, Large plant response rating (0 to 100 scale) [9, 28] | Plant response rating, Pigweed [10, 27] | Pigweed plant response rating (0 to 100 scale) [10, 28] | Plant response rating, Barnyardgrass [11, 27] | Barnyardgrass plant response rating (0 to 100 scale) [11, 28] | Plant response rating, Foxtail, Giant [12, 27] | Foxtail, Giant plant response rating (0 to 100 scale) [12, 28] | Plant response rating, Corn [13, 27] | Corn plant response rating (0 to 100 scale) [13, 28] | Plant response rating, Wheat [14, 27] | Wheat plant response rating (0 to 100 scale) [14, 28] | Plant response rating, Morningglory [15, 27] | Morningglory plant response rating (0 to 100 scale) [15, 28] | Plant response rating, Velvetleaf [16, 27] | Velvetleaf plant response rating (0 to 100 scale) [16, 28] | Plant response rating, Ducksalad [17] | Plant response rating, Sedge, Umbrella ([18]; 0 to 100 scale where 0 is no effect and 100 is complete control, 13 to 15 d) | Plant response rating, Barnyardgrass [19] | Plant response rating, Rice [20]
